Laboratory results published in ChEMBL document CHEMBL1146042, “Identification of metabolites of the tryptase inhibitor CRA-9249: observation of a metabolite derived from an unexpected hydroxylation pathway” (Bioorg Med Chem Lett, 2006).

Experiments:
[1] = molecular target: Tryptase (Homo sapiens, UniProt Q9BZJ3+Q15661+Q9NRR2); assay: Inhibition of mast cell tryptase; type: protein assay
[2] = Stability in dog liver microsome after 3 hrs; type: ADME, Canis lupus familiaris; settings: liver microsomes, read-out: Stability
[3] = Stability in human liver microsome after 3 hrs; type: ADME; settings: liver microsomes, read-out: Stability
[4] = Stability in mouse liver microsome after 3 hrs; type: ADME; settings: liver microsomes, read-out: Stability
[5] = Stability in rat liver microsome after 3 hrs; type: ADME; settings: liver microsomes, read-out: Stability
[6] = organism: Macaca fascicularis; assay: Stability in cynomolgus monkey liver microsome after 3 hrs; settings: liver microsomes

Compound	Ki [1] [µM]	other results
Cn1c(C(F)(F)c2nc3c(F)cc(F)cc3[nH]2)nc2ccc(C(=O)NCCO)cc21	7	
Cn1c(C(F)(F)c2nc3c(F)cc(F)cc3[nH]2)nc2ccc(C(N)=O)cc21	2.7	
Cn1c(C(F)(F)c2nc3c(F)cc(F)cc3[nH]2)nc2ccc(C(=O)NC(O)COc3ccc(F)cc3)cc21 (stereo unspecified)	0.024	

More lines, main results first:

Ki [1] [µM]	Compound	other results
1.4	Cn1c(C(F)(F)c2nc3c(F)c(O)c(F)cc3[nH]2)nc2ccc(C(=O)NCCOc3ccc(F)cc3)cc21	
0.3	Cn1c(C(F)(F)c2nc3c(F)cc(F)cc3[nH]2)nc2ccc(C(=O)NCCOc3ccc(F)cc3)cc21	remaining at 3 h [2]: < 10%; remaining at 3 h [3]: < 10%; remaining at 3 h [4]: < 10%; remaining at 3 h [5]: 56%; remaining at 3 h [6]: < 10%
0.034	Cn1c(C(F)(F)c2nc3c(F)cc(F)c(O)c3[nH]2)nc2ccc(C(=O)NCCOc3ccc(F)cc3)cc21	
